{"source": "paper PMC11150392", "about": "“Structure and mechanism of the K^+/H^+ exchanger KefC” (Nature Communications, 2024)", "target": "T1, KefC WT* (Escherichia coli, UniProt P03819)", "T1 construct": "lacks final 60 C-terminal residues (WT*); C-terminal TEV-GFP-His8, cleaved for cryo-EM, kept in FSEC stability assays; expressed in E. coli Lemo21(DE3)-type host; homodimer in DDM/GDN", "T1 sequence (P03819 1-560)": "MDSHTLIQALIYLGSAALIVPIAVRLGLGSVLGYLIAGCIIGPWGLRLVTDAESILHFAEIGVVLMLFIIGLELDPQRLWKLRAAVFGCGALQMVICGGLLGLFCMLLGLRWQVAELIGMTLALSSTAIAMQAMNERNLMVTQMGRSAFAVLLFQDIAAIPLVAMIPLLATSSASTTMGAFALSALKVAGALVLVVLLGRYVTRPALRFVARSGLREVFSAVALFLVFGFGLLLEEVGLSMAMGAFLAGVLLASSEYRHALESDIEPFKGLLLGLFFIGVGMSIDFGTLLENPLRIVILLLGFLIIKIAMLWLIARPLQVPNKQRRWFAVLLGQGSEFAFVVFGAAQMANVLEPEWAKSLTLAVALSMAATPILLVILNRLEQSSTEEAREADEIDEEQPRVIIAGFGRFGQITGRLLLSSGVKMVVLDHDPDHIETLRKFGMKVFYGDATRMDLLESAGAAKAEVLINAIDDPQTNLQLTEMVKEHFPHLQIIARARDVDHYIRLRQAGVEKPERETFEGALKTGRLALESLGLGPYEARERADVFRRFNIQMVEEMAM", "assay": "FSEC thermostabilization of purified GFP fusion", "assay_type": "binding", "settings": "40 °C 10 min, 1% beta-OG, DDM, 1 mM AMP, pH 7.5; dimer interface; Supplementary Fig. 5b; PG modelled (PGW), map density not unambiguous"}
{"molecule": "CCCCCCCC/C=C\\CCCCCCCC(=O)OC[C@H](COP(=O)(O)OCC(O)CO)OC(=O)CCCCCCC/C=C\\CCCCCCCC", "note": "(stereo partly shown) [DOPG]", "values": [{"measurement": "FSEC thermostabilization of purified GFP fusion", "result": "The clearest thermostabilization of the KefC homodimer was observed upon addition of PG lipids"}]}
